Columns and labels:
[1] = solid residues analysis after shake-flask (DSC, FTIR-ATR); format: physicochemical; conditions: sediments after shake-flask in water and organic solvents, FTIR-ATR and literature
Excerpt: The equilibrium in the solid-liquid saturated systems is governed not only by the properties of solvents but also by the solid state including polymorphic or pseudopolymorphic transformations as well as solvates formation. […] For this reason, the sediments collected after the shake-flask experiments for water and studied organic solvents were examined using differential scanning calorimetry (DSC) and Fourier transform infrared spectroscopy–attenuated total reflectance (FTIR-ATR) techniques. The detailed characteristics of solid residues were provided in supplementary materials (see Figures S5–S10). In the case of solvate formation or polymorphic transformation, the absorption band shifts on the IR spectra are often related to new hydrogen bonding patterns. In the case of DSC thermograms, new phases can be detected by observing additional signals due to the heat transfer associated with polymorphic transition or pseudo-polymorph transformations. […] This conclusion is in good accord with already reported observation. According to Ouyang et al. (2019) benzamide solid form is not altered in contact with such solvents as water, methanol, ethanol, 1-propanol, isopropanol, 1-butanol, isobutanol, methyl acetate, ethyl acetate, butyl acetate, acetonitrile and acetone. In the case of salicylamide, the only polymorphic transformation observed so far was with the use of high pressure. […]
The solid residues obtained after “shake-flask” procedure were dried on air and used for IR spectrophotometric and DSC measurements. Infrared spectra were recorded using PerkinElmer (Waltham, MA, USA) spectrophotometer equipped with a diamond attenuated total reflection (ATR) device. DSC thermograms were recorded using DSC 6000 Perkin Elmer (Waltham, MA, USA) calorimeter (heating rate: 5 K/min, nitrogen flow: 20 mL/min) calibrated using indium and zinc reference standards provided by the manufacturer.

[2] = shake-flask solubility in aqueous binary mixtures of DMSO, DMF and 4FM; format: physicochemical; conditions: aqueous 4FM mixture, 4FM mole fraction 0.6; room temperature (Figure 4)
Experimental: In this study, the “shake-flask” procedure used in the previous studies was applied and it consists of the following steps. First, the mixtures (suspensions) containing saturated solution and undissolved solids were prepared in glass screw test tubes. Then the mixtures were incubated and agitated for 24 h at controlled temperature (298.15, 303.15, 308.15, or 313.15 K) and 60 rpm using Orbital Shaker ES-20/60 (Biosan, Riga, Latvia). At the next step, the temperature was still controlled, however, the agitation was turned off and suspensions were let to settle down for an hour. Then, the supernatant was filtrated using 0.22 μm PTFE syringe membrane filter. Nextly, 0.1 mL of the filtrate was diluted with 2 mL of methanol. The samples prepared in this way were protected against crystallization, as the concentration was low. 0.5 mL of the filtrate was used for density measurements. All equipment including automatic pipette tips, membrane filters, and syringes were preheated at the measurement temperature in order to avoid the solute precipitation. All “shake-flask” experiments were carried out in triplicate. The concentration in the samples was determined spectrophotometrically using the calibration curve method. […] All UV spectra were recorded using an A360 UV-VIS spectrophotometer (AOE Instruments, Shanghai, China).

[3] = COSMO-RS solubility computation; conditions: acetic acid

Row | molar fraction solubility (xS) [2] [molar fraction] | mole fraction error of COSMO-RS computed solubility versus experiment [3] [%] | SMILES | phase change of the solid in saturated solutions (polymorph / solvate) [1]
1 |  |  | NC(=O)c1ccccc1 [benzamide] | do not show a tendency to undergo phase changes
2 | 0.379 | −60 | NC(=O)c1ccccc1O [salicylamide] | do not show a tendency to undergo phase changes
3 |  |  | CCOc1ccccc1C(N)=O [ethenzamide] | do not show a tendency to undergo phase changes

From PMC9144492, “New Screening Protocol for Effective Green Solvents Selection of Benzamide, Salicylamide and Ethenzamide” (Molecules, 2022)
